A short description of this data set: gradient 5% acetonitrile 3 min, to 50% in 2 min, to 85% in 15 min, held 3 min, 100 µL/min. As to conditions: column: Zorbax Extend-C18 2.1 x 50 mm; eluents: water / acetonitrile, 0.1% formic acid. In a few lines:
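Retention times come from adduct peaks that were picked computationally and then checked by hand. The standards, pure and pooled in mixtures of ~100 molecules, were run on a Zorbax Extend-C18 column (2.1 × 50 mm, 1.8 μm) at 100 μL/min with water and acetonitrile, each with 0.1% formic acid. Detection was by quadrupole time-of-flight mass spectrometry in positive and negative ionization mode, with a dead volume of 40 μL and a dwell volume of 900 μL.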
Consider `CCN1C(=O)c2ccccc2Oc2ccc(C(=O)NCCc3ccc(Cl)cc3)cc21`, for which the RP-LC retention time is 998 s.

As for `Cc1oc2ncn(CC(=O)N3CCCc4ccccc43)c(=O)c2c1C`, the RP-LC retention time amounted to 838 s.

`CN1CCN(CCCNC(=O)c2noc3c2CCCCC3)CC1` displayed an RP-LC retention time of 584 s.

In turn, `Cc1ccccc1NC(=O)N1CCN(c2ccc(=O)n(-c3ccccc3)n2)CC1` yielded an RP-LC retention time of 744 s.

Molecule `Cc1nc2c(c(=O)n1CC(=O)NC1CCCC1)CCN(Cc1ccccc1)C2` yielded an RP-LC retention time of 602 s.

With `Cc1[nH]c(/C=C2\C(=O)Nc3ccc(S(=O)(=O)Cc4c(Cl)cccc4Cl)cc32)c(C)c1C(=O)N1CCC[C@@H]1CN1CCCC1`, the RP-LC retention time stood at 787 s.

Take `O=C(Nc1ccc2c(c1)OCCO2)C1CCN(c2cc(N3CCCCC3)ncn2)CC1`: the RP-LC retention time was determined as 667 s.

`Cc1cccc(-c2nnc(-c3nc(NC4CCS(=O)(=O)C4)c4ccccc4n3)o2)c1` (stereo not given) registered an RP-LC retention time of 821 s.

As for `CCC(Sc1ccc(NC(=O)c2cccc(F)c2)nn1)C(=O)OC` (stereo not given), the RP-LC retention time came out at 890 s.

In turn, `CCc1ccc(NC(=O)c2sc(-c3cccn3CC)nc2C)cc1` came in with an RP-LC retention time of 1260 s.

`Cc1cc(-c2nn3c(C4CCCCC4)nnc3s2)c2ccccc2n1` displayed an RP-LC retention time of 949 s.

In the case of `CC(C)C(=O)NCc1csc(C2CCCN(C(=O)C3CCC3)C2)n1` (stereo not given), the RP-LC retention time turned out to be 694 s.

`CCCNC(=O)C1CCN(c2ccc(SCC(=O)Nc3ccc(C)cc3F)nn2)CC1` returned an RP-LC retention time of 679 s.

The molecule `CCc1noc(-c2ccnc(-n3cnc(C(=O)NCc4ccccc4)c3)c2)n1` came in with an RP-LC retention time of 866 s.

Consider `COCCCNCc1c(C(=O)O)c(C)n(Cc2ccc(Cl)cc2)c1C`, for which the RP-LC retention time amounted to 672 s.

In turn, `CN(C)C(=O)C1c2ccccc2CC(=O)N1Cc1ccccc1` (stereo not given) gave an RP-LC retention time of 728 s.

`CCCn1cc(C2=CCN(S(=O)(=O)c3c(C)nn(C)c3C)CC2)c2cccnc21` had an RP-LC retention time of 896 s.

Molecule `CCCCNc1ncc(C(=O)O)c(-c2ccncc2)n1` yielded an RP-LC retention time of 612 s.

`COc1ccc(CNC(=O)C2CCCN(c3nccnc3Sc3ccc(C)cc3)C2)c(OC)c1` (stereo not given) displayed an RP-LC retention time of 792 s.

Turning to `COc1ccccc1CNC(=O)Cn1cncc(C)c1=O`, the RP-LC retention time was determined as 618 s.

As for `Cc1ccc(NC(=O)Cn2cnc3nc(N4CCCC(C(=O)NC(C)C)C4)sc3c2=O)cc1` (stereo not given), the RP-LC retention time is 711 s.

As to `Cc1noc(C)c1CNC(=O)Cc1cccc(Cl)c1`, the RP-LC retention time was determined as 742 s.

In turn, `CCn1cc(C)c(C(=O)O)c1CC(=O)N1CCC(c2ccccc2)C1` (stereo not given) gave an RP-LC retention time of 802 s.

For the molecule `Cc1ccc2c(Cl)c(C(=O)N3CCN(c4ccccn4)CC3)sc2c1`, the RP-LC retention time came to 726 s.

Turning to `O=C(O)c1cnc(N2CCSCC2)nc1-c1cccc(Cl)c1`, the RP-LC retention time stood at 964 s.

With `CCOC(=O)Cc1nnc(-c2ccc(Br)cc2)o1`, the RP-LC retention time was found to be 903 s.

`CCC(C)NC(=O)c1cccn1Cc1noc(-c2ccc(Cl)cc2)n1` (stereo not given): the RP-LC retention time is 1080 s.

Regarding `CCC(=O)Nc1ccc(-n2cnc(C(=O)N3CCc4ccccc4C3)c2)nc1`, the RP-LC retention time was determined as 721 s.

For `Cc1ccc2c(c1)C1CC(C)(O2)N(c2cccc(C(=O)NCc3ccccn3)c2)C(=O)N1` (stereo not given), the RP-LC retention time was found to be 646 s.

In turn, `Cc1nc(NCCNC(=O)c2ccc(Br)o2)cc(-n2cccn2)n1` had an RP-LC retention time of 673 s.

`CCS(=O)(=O)c1ccccc1C(=O)Nc1sc(-c2ccccc2)cc1C(N)=O` returned an RP-LC retention time of 814 s.

In the case of `COc1ccc(OCCn2c(C(F)(F)F)nc3cc4c(cc32)OCCO4)cc1`, the RP-LC retention time stood at 985 s.

For the molecule `Cc1nn(C)c2c(=O)n(C(C)C(=O)NCc3ccc4c(c3)OCO4)ccc12` (stereo not given), the RP-LC retention time was found to be 715 s.

In turn, `CS(=O)(=O)N1CCOc2ccc(CCC(=O)NC3CCS(=O)(=O)C3)cc2C1` (stereo not given) returned an RP-LC retention time of 644 s.

Consider `Cc1ccc(-c2noc(CSc3nccn3-c3ccccc3)n2)cc1`, for which the RP-LC retention time was 938 s.

Take `Cc1ccc(NC(=O)c2nc3ccccc3[nH]c2=O)c(C)c1`: the RP-LC retention time was 778 s.

The molecule `O=C(c1ccncc1)N1CCN(C(=O)c2nnn3c2COC(c2ccc(Cl)cc2)C3)CC1` (stereo not given) returned an RP-LC retention time of 717 s.

In turn, `Cc1nc(C(=O)Nc2ccc(F)cc2Cl)c(C)o1` registered an RP-LC retention time of 1040 s.

Turning to `Cc1ccc(-n2nc(N3CCCN(S(=O)(=O)Cc4ccccc4)CC3)ccc2=O)cc1C`, the RP-LC retention time worked out at 912 s.

Molecule `Cn1nc(C(=O)N2CCCC(C(=O)Nc3ccccc3)C2)c2c1CCN(C(=O)c1ccco1)C2` (stereo not given) registered an RP-LC retention time of 717 s.

The molecule `Cc1noc(C)c1S(=O)(=O)N1CCC[C@H](n2c(=O)n(C)c3cccnc32)C1` registered an RP-LC retention time of 816 s.

Molecule `COc1ccc(N2CCN(c3cc(SCC(=O)Nc4ccc(C(C)C)cc4)ncn3)CC2)cc1` yielded an RP-LC retention time of 1110 s.

For the molecule `CC(C)c1noc(-c2cc(=O)n(CC(=O)NCc3ccccc3F)c3ccccc23)n1`, the RP-LC retention time was 959 s.

With `O=C(NCc1ccc(-c2nc(-c3cccs3)no2)s1)C1CCC1`, the RP-LC retention time was found to be 910 s.

Consider `Nc1nc(N)nc(C2C=CCCC2)n1` (stereo not given), for which the RP-LC retention time was found to be 620 s.

For `CC(=O)c1cccc(NC(=O)Cn2nc3c4cc(-c5ccc(Cl)cc5)nn4ccn3c2=O)c1`, the RP-LC retention time worked out at 902 s.

On to `CCC(c1cccs1)N1C(=O)[C@H]2CN(S(=O)(=O)c3ccc(F)cc3)C[C@H]2C1=O` (stereo not given in full), for which the RP-LC retention time came out at 979 s.

`O=C(CSc1nnc(NC(=O)Cc2cccc3ccccc23)s1)NCC1CCCO1` (stereo not given) returned an RP-LC retention time of 715 s.

Turning to `CCn1c(=O)c2ccccc2n(Cc2nc(-c3cccc(Br)c3)no2)c1=O`, the RP-LC retention time was 1120 s.

`CCc1ccccc1N1C(=O)CN(S(=O)(=O)CC)CC1(C)C(=O)NC1CCCCCC1` (stereo not given) had an RP-LC retention time of 957 s.

`Cc1ccsc1C(=O)NCC1CCCCC(=O)N1` (stereo not given) returned an RP-LC retention time of 640 s.

Take `Cc1cccc(CNC(=O)CN2C(=O)C3CCCCN3c3ccc(S(=O)(=O)N4CCCC4)cc32)c1` (stereo not given): the RP-LC retention time was found to be 1080 s.

Consider `O=C(Nc1ccc(F)c(Cl)c1)N1CCC(OC2CCN(Cc3ccccc3)CC2)CC1`, for which the RP-LC retention time stood at 710 s.

For `COCCN1C(=O)c2cc(-c3ccc(OC)cc3)nn2CC1(C)C(=O)NCc1ccccc1OC` (stereo not given), the RP-LC retention time is 853 s.

Molecule `Cc1cnc(C2CC2)n1CCNS(=O)(=O)c1ccccc1Cl` returned an RP-LC retention time of 613 s.

`COc1ccc(OC)c(CNC(=O)NC2COc3ccc(OC)cc3C2)c1` (stereo not given): the RP-LC retention time was 810 s.

In the case of `Cc1ccc(-c2nc3cnccn3c2NCCC(=O)NCC(C)C)cc1`, the RP-LC retention time was 690 s.

Regarding `O=c1n(CCc2ccccc2)nc2ccc(S(=O)(=O)N3CCOCC3)cn12`, the RP-LC retention time came out at 809 s.

`CCOc1ccc(CCNC(=O)c2snc(C(=O)NCc3ccccc3)c2N)cc1OCC` displayed an RP-LC retention time of 1090 s.

`CC1CCN(c2cc(-n3cnc(C(=O)N4CCc5ccccc54)c3)ncn2)CC1`: the RP-LC retention time was 1140 s.

`CCOc1ccc(NC(=O)C2CCN(S(C)(=O)=O)c3cc(C)ccc3O2)cc1` (stereo not given) yielded an RP-LC retention time of 972 s.

`Cn1nccc1-c1cccc(-c2noc(-c3ccc(F)cc3Cl)n2)c1`: the RP-LC retention time turned out to be 1190 s.

`COCCN1C(=O)c2ccccc2C(C(=O)NCCC(C)C)C1c1cccs1` (stereo not given): the RP-LC retention time turned out to be 874 s.

`O=C(c1cnccn1)N1CCCCC1c1nncn1Cc1ccccc1` (stereo not given): the RP-LC retention time was determined as 637 s.

In turn, `CC(=O)Nc1cccc(C2=NN(C(C)=O)C(c3cccs3)C2)c1` (stereo not given) displayed an RP-LC retention time of 685 s.

In turn, `Cc1noc(-c2ccc(=O)n(CC(=O)NC3CCc4ccccc43)c2)n1` (stereo not given) showed an RP-LC retention time of 669 s.

With `Fc1ccc(CN2CCC3(CC2)N=C(C2CC2)NO3)cc1`, the RP-LC retention time is 583 s.

Regarding `Cc1nnc2cc(N3CCN(S(=O)(=O)c4cccs4)CC3)cnn12`, the RP-LC retention time came to 636 s.

`COC(=O)c1cc(OCC(=O)Nc2ccc3c(c2)OCCO3)c2cc(Cl)ccc2n1`: the RP-LC retention time was determined as 851 s.

In the case of `CCN(CC)c1ccc(NC(=O)CN2C(=O)C(C)(C)c3ccccc32)c(C)c1`, the RP-LC retention time came to 630 s.

As to `O=C(Cn1cccc1-c1nnc(C2CCC2)o1)Nc1ccc(F)c(F)c1`, the RP-LC retention time turned out to be 945 s.

The molecule `CCC(C(=O)N1CCN(c2cc(C)n3cnnc3n2)CC1)c1ccccc1` (stereo not given) displayed an RP-LC retention time of 864 s.

With `Cc1ccc(-c2cn3ccn(-c4ccc(F)c(F)c4)c(=O)c3n2)c(C)c1`, the RP-LC retention time was 924 s.

The molecule `CC(C)CCNC(=O)C1(C)CN(S(=O)(=O)c2ccccc2)CC(=O)N1c1ccc(F)cc1F` (stereo not given) gave an RP-LC retention time of 972 s.

For the molecule `Cc1ccc(CNC(=O)C2(C)Cn3nc(C(=O)NCCCN4CCCCC4)cc3C(=O)N2C)cc1` (stereo not given), the RP-LC retention time stood at 598 s.

Molecule `Cc1nn(-c2ccccc2)c2c1N(CCCC(=O)NC1CC1)C(=O)CS2` returned an RP-LC retention time of 780 s.

Regarding `CCn1nc(C)n2cc(S(=O)(=O)NCc3ccc(F)cc3)cc2c1=O`, the RP-LC retention time came to 836 s.

Molecule `O=C(NCc1ccc(F)cc1)C1CCN(c2cc(N3CCSCC3)ncn2)CC1` registered an RP-LC retention time of 666 s.

On to `O=C(Nc1ccc2c(c1)OCCO2)N1CCCCCC1CN1CCOCC1` (stereo not given), for which the RP-LC retention time came to 611 s.

For the molecule `Cc1nnc(-c2ccc3ccn(CC(=O)Nc4ccc(F)c(Cl)c4)c3c2)o1`, the RP-LC retention time worked out at 861 s.

Source of the values: the METLIN SMRT retention time set (Domingo-Almenara et al. 2019).
